Experimental data from ChEMBL document CHEMBL4014302, “Studies on anti-hepatoma activity of Annona squamosa L. pericarp extract” (Bioorg Med Chem Lett, 2017).

Columns and labels:
SMMC-7721 [1] = assay: Cell cycle arrest in human SMMC7721 cells assessed as sub-G1 phase accumulation at half IC50 after 24 hrs by propidium iodide-staining based flow cytometry (reference value: 0.8 %); type: functional
SMMC-7721 [2] = assay: Induction of apoptosis in human SMMC7721 cells assessed as necrotic cells at half IC50 after 24 hrs by annexin V/PI-staining based flow cytometry (Rvb =1.6 %); type: functional
SMMC-7721 [3] = assay: Induction of apoptosis in human SMMC7721 cells assessed as live cells at IC50 after 24 hrs by annexin V/PI-staining based flow cytometry (reference value: 97.3 %); type: functional
SMMC-7721 [4] = assay: Cell cycle arrest in human SMMC7721 cells assessed as S phase accumulation at half IC50 after 24 hrs by propidium iodide-staining based flow cytometry (reference value: 12.7 %); type: functional
SMMC-7721 [5] = assay: Induction of apoptosis in human SMMC7721 cells assessed as early apoptotic cells at IC50 after 24 hrs by annexin V/PI-staining based flow cytometry (reference value: 0.6 %); type: functional
SMMC-7721 [6] = assay: Induction of apoptosis in human SMMC7721 cells assessed as condensed nuclei after 24 hrs by Hoechst 33258 staining based fluorescent microscopic method; type: functional, cell-based
SMMC-7721 [7] = assay: Induction of apoptosis in human SMMC7721 cells assessed as early apoptotic cells at half IC50 after 24 hrs by annexin V/PI-staining based flow cytometry (reference value: 0.6 %); type: functional
SMMC-7721 [8] = assay: Cell cycle arrest in human SMMC7721 cells assessed as S phase accumulation at IC50 after 24 hrs by propidium iodide staining based flow cytometry (reference value: 12.7 %); type: functional
SMMC-7721 [9] = assay: Cytotoxicity against human SMMC7721 cells after 48 hrs by MTT assay; type: functional, cell-based; details: SMMC-7721, 48 h
SMMC-7721 [10] = assay: Induction of apoptosis in human SMMC7721 cells assessed as broken nuclei after 24 hrs by Hoechst 33258 staining based fluorescent microscopic method; type: functional, cell-based
SMMC-7721 [11] = assay: Induction of apoptosis in human SMMC7721 cells assessed as necrotic cells at IC50 after 24 hrs by annexin V/PI-staining based flow cytometry (Rvb =1.6 %); type: functional
SMMC-7721 [12] = assay: Induction of apoptosis in human SMMC7721 cells assessed as live cells at half IC50 after 24 hrs by annexin V/PI-staining based flow cytometry (reference value: 97.3 %); type: functional
SMMC-7721 [13] = assay: Cell cycle arrest in human SMMC7721 cells assessed as sub-G1 phase accumulation at IC50 after 24 hrs by propidium iodide staining based flow cytometry (reference value: 0.8 %); type: functional
SMMC-7721 [14] = assay: Cell cycle arrest in human SMMC7721 cells assessed as G2/M phase accumulation at half IC50 after 24 hrs by propidium iodide-staining based flow cytometry (reference value: 28.8 %); type: functional
SMMC-7721 [15] = assay: Induction of apoptosis in human SMMC7721 cells after 24 hrs by annexin V/PI-staining based flow cytometry; type: functional, cell-based
SMMC-7721 [16] = assay: Induction of apoptosis in human SMMC7721 cells assessed as late apoptotic cells at IC50 after 24 hrs by annexin V/PI-staining based flow cytometry (reference value: 0.5 %); type: functional
SMMC-7721 [17] = assay: Cell cycle arrest in human SMMC7721 cells assessed as G2/M phase accumulation at IC50 after 24 hrs by propidium iodide staining based flow cytometry (reference value: 28.8 %); type: functional
SMMC-7721 [18] = assay: Induction of apoptosis in human SMMC7721 cells assessed as late apoptotic cells at half IC50 after 24 hrs by annexin V/PI-staining based flow cytometry (reference value: 0.5 %); type: functional
SMMC-7721 [19] = assay: Cell cycle arrest in human SMMC7721 cells assessed as G1 phase accumulation at half IC50 after 24 hrs by propidium iodide-staining based flow cytometry (reference value: 57.6 %); type: functional
SMMC-7721 [20] = assay: Cell cycle arrest in human SMMC7721 cells assessed as G1 phase accumulation at IC50 after 24 hrs by propidium iodide staining based flow cytometry (reference value: 57.6 %); type: functional
H22 [21] = assay: Antitumor activity against mouse H22 cells implanted in Kunming mouse assessed as tumor weight at 15 mg/kg, po administered once daily for 7 days (reference value: 0.66 +/- 0.18 g); type: functional
H22 [22] = assay: Antitumor activity against mouse H22 cells implanted in Kunming mouse assessed as tumor growth inhibition at 15 mg/kg, po administered once daily for 7 days relative to control; type: functional; details: 168 h, read-out: TGI
SMMC-7721 [23] = assay: Induction of apoptosis in human SMMC7721 cells assessed as increase in cleaved caspase 3 levels after 24 hrs by Western blot method; type: functional, cell-based
SMMC-7721 [24] = assay: Induction of apoptosis in human SMMC7721 cells assessed as increase in cleaved caspase 8 levels after 24 hrs by Western blot method; type: functional, cell-based
SMMC-7721 [25] = assay: Induction of apoptosis in human SMMC7721 cells assessed as increase in cleaved caspase 9 levels after 24 hrs by Western blot method; type: functional, cell-based
SMMC-7721 [26] = assay: Induction of apoptosis in human SMMC7721 cells assessed as increase in Bax levels after 24 hrs by Western blot method; type: functional, cell-based
SMMC-7721 [27] = assay: Induction of apoptosis in human SMMC7721 cells assessed as decrease in Bcl2 levels after 24 hrs by Western blot method; type: functional, cell-based

SMILES | Activity (SMMC-7721 [1]) [%] | Activity (SMMC-7721 [2]) [%] | Activity (SMMC-7721 [3]) [%] | Activity (SMMC-7721 [4]) [%] | Activity (SMMC-7721 [5]) [%] | Activity (SMMC-7721 [6]) | Activity (SMMC-7721 [7]) [%] | Activity (SMMC-7721 [8]) [%] | IC50 (SMMC-7721 [9]) [µM] | Activity (SMMC-7721 [10]) | Activity (SMMC-7721 [11]) [%] | Activity (SMMC-7721 [12]) [%] | Activity (SMMC-7721 [13]) [%] | Activity (SMMC-7721 [14]) [%] | Activity (SMMC-7721 [15]) | Activity (SMMC-7721 [16]) [%] | Activity (SMMC-7721 [17]) [%] | Activity (SMMC-7721 [18]) [%] | Activity (SMMC-7721 [19]) [%] | Activity (SMMC-7721 [20]) [%] | other results
CC1=C[C@@]23CC[C@H]4[C@@](C)(CCC[C@@]4(C)C(=O)O)[C@@H]2CC[C@H]1C3 | 1.1 | 3.4 | 75.4 | 14.8 | 10.8 | Dose-dependent effect | 7.8 | 11 | 45.7 | Dose-dependent effect | 6.4 | 85.2 | 0.3 | 25.5 | Dose-dependent effect | 7.4 | 26.9 | 3.5 | 58.5 | 60.9 | –
O=c1[nH]cc(F)c(=O)[nH]1 [FLUOROURACIL] | – | – | – | – | – | – | – | – | – | – | – | – | – | – | – | – | – | – | – | – | Activity (H22 [21]): 0.36 g; inhibition in vivo at 15 mg/kg (H22 [22]): 44.7%
C=C1C[C@@]23CC[C@H]4[C@@](C)(CCC[C@@]4(C)C(=O)O)[C@@H]2CC[C@H]1C3 | 1 | 3.8 | 79.3 | 11.2 | 12.9 | Dose-dependent effect | 10.7 | 7.7 | 67.4 | Dose-dependent effect | 2.6 | 80.4 | 1.2 | 26.9 | Dose-dependent effect | 5.2 | 18 | 5.1 | 61 | 73.3 | Activity (SMMC-7721 [23]): Dose-dependent effect; Activity (SMMC-7721 [24]): Dose-dependent effect; Activity (SMMC-7721 [25]): Dose-dependent effect; Activity (SMMC-7721 [26]): Dose-dependent effect; Activity (SMMC-7721 [27]): Dose-dependent effect
